The target in series [1] is T1, human TRPV1 (Homo sapiens (Human), UniProt Q8NER1). The series is described as follows: pH-based assay, Protocol 2, TRPV1/CHO cells (hpH-CHO), Fura-2 Ca2+ influx. As to conditions: pH 5.0-5.1 (H2SO4), mean ± SEM. The class given is cell-based. On the procedure: For Protocol 2, a Chinese Hamster Ovary cell line (CHO) that has been engineered to constitutively express human recombinant TRPV1 was used (TRPV1/CHO cells). The TRPV1/CHO cell line was generated as described below.
T1 sequence (Q8NER1 whole entry, looked up): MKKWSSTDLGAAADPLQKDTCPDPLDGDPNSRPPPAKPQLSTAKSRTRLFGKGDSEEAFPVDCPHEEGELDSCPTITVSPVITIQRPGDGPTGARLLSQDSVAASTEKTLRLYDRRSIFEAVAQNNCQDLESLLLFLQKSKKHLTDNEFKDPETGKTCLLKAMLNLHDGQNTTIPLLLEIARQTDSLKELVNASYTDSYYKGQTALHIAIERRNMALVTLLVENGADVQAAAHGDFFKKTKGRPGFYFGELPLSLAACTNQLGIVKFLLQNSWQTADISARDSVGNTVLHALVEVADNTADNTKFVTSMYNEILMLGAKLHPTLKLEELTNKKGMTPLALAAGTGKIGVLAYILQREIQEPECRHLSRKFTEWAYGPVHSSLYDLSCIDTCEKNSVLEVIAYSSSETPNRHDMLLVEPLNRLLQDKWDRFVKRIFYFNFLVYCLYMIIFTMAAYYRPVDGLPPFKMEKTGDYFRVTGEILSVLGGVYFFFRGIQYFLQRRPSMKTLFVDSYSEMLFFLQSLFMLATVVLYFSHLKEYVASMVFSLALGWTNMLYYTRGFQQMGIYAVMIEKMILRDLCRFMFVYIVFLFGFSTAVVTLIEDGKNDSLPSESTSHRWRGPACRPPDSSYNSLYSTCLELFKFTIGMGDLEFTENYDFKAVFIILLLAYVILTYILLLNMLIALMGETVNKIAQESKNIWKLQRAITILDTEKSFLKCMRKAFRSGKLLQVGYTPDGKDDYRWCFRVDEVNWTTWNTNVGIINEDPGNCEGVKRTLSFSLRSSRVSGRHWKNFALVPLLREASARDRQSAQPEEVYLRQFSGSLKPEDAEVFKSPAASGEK
TRPV1/CHO cells were seeded in the 96-well clear-bottom black-wall plate (Nunc) at densities of 1-2×10^4 cells/well and grown in 100 μL of culture medium (alpha-MEM supplemented with 10% FBS, 20 mM HEPES, 1 mg/mL geneticin and 1% antibiotic-antimycotic mixed stock solution) for 1-2 days before the experiment.
(1) Culture medium was removed using an 8-channel-pipette (Rainin, USA) from the 96-well plate and the wells were refilled with 100 μL of loading buffer (20 mM HEPES, 115 mM NaCl, 5.4 mM KCl, 0.8 mM MgCl2, 1.8 mM CaCl2, 13.8 mM D-glucose, 2.5 mM probenecid, pH 7.4) containing 5 μM Fura-2 AM (Dojin, Japan).
(2) The 96-well plate was incubated at 37° C. for 45 min.
(3) The loading buffer was removed from each well. The cells were subsequently washed twice with 150 μL of measuring buffer (20 mM HEPES, 115 mM NaCl, 5.4 mM KCl, 0.8 mM MgCl2, 5.0 mM CaCl2, 13.8 mM D-glucose, 0.1% BSA, pH 7.4) (no probenecid). The wells were then refilled with 80 μL of measuring buffer.
(4) After an incubation at 4° C. for 15 min, the 96-well plate was transferred to a model FDSS-3000 plate reader apparatus (Hamamatsu Photonics K.K., Japan).
(5) The Fura-2 fluorescent intensity was monitored at a wavelength of 340 nm and at 380 nm, respectively, at a rate of 0.5 Hz for a total of 240 seconds. After 16 time points (32 sec) of baseline detection, 20 μL of agonist solution was added to each well. The final volume was 100 μL/well.
(6) Fluorescence intensity ratio refers to the fluorescence intensity at 340 nm over the fluorescence intensity at 380 nm at a particular time point. The baseline was set as the average of the fluorescent intensity ratios for the first 16 time points before the addition of agonist solution. The maximum response was the highest fluorescent intensity ratio during the 60 time points following addition of agonist solution.
(7) Maximal signal ratios from each well were calculated as output data using the FDSS-3000 analysis program. Data were analyzed using Excel (Microsoft) and XLfit (idbs) software.
In an “agonist plate,” two different agonist solutions with different H2SO4 concentrations were used for the pH assay (see, e.g., FIG. 3A of U.S. Patent Application Publication No. US 2009/0170868 A1). For the first half of a 96-well plate one agonist solution was used; for the second half the other agonist solution was used. The agonist solutions were obtained by diluting sulfuric acid (1M H2SO4) with measuring buffer. The concentrations for the two agonist solutions were determined as described above in Section 2 of Protocol 2.
The sulfuric acid concentrations between the two agonist solutions differed by 0.5 mM. In the experiment described in Section 2 of Protocol 2, the sulfuric acid concentrations in the agonist solutions were determined to be 16 mM and 16.5 mM, respectively. After 1:4 dilution of the agonist solutions, the final sulfuric acid concentration was 3.2 mM and 3.3 mM, respectively. The resulting pH value for the pH assay was 5.0 to 5.1.
Test compounds were dissolved in DMSO to yield 1 mM stock solutions. The stock solutions were further diluted using DMSO in […] serial dilution steps with 6 points (1000, 250, 62.5, 15.625, 3.9062, and 0.977 μM). The thereby-obtained solutions were further diluted in measuring buffer (1:100) as 10× stock serial dilutions with a DMSO concentration of 1%. 10 μL of a 10× stock was added into each well of an “antagonist plate” (see step 3.3.(4) below). Thus, the final concentrations of antagonists was as follows: 0.977, 3.906, 15.63, 62.5, 250, and 1000 nM containing 0.1% DMSO (see, e.g., FIG. 3B of U.S. Patent Application Publication No. US 2009/0170868 A1).
Steps (1) and (2) of this Assay were the same as steps 2.2.(1) and 2.2.(2), respectively, of Protocol 2. […]

The target of series [2] is T1, human TRPV1. Nature of the series: Capsaicin-based assay, Protocol 2, TRPV1/CHO cells (hCAP-CHO), Fluo-4 FLIPR. The note with it: 100 nM capsaicin, mean ± SEM. In kind it is cell-based. From the text: The TRPV1/CHO cell line was generated as described below. […] The resulting PCR products were purified from agarose gels using Gel Band Purification Kit (GE Healthcare Bioscience) and were subcloned into pCR-Blunt vector (Invitrogen). The cloned cDNA was fully sequenced using a fluorescent dye-terminator reagent (BigDye Terminator ver3.1 Cycle Sequencing Kit, Applied Biosystems) and ABI Prism 3100 genetic analyzer (Applied Biosystems). The pCR-Blunt vector containing the hTRPV1 cDNA was subjected to restriction digestion with EcoR1. The restriction fragment was subcloned into expression vector pcDNA3.1(-) (Invitrogen) and named pcDNA3.1(-)-hVR1 plasmid. The sequence of the cDNA encoding TRPV1 is available at GenBank accession number AJ277028. […] The cells were transfected with the pcDNA3.1(-)-hVR1 plasmid using FuGENE6 (Roche) according to the manufacturer's protocol. 24 hr after transfection, neomycin-resistant cells were selected using 1 mg/mL G418 (Nacalai Tesque). […] The cells expressing hTRPV1 were cultured in the growth medium supplemented with 1 mg/mL G418. […] Capsaicin-based Assay: […] Subsequently, the cells were loaded by incubation in 0.1 mL of wash buffer containing Fluo-4 at 3 μM final concentration. After 1 hour, the cells were washed twice with 0.2 mL wash buffer and resuspended in 0.1 mL wash buffer. The plates were then transferred to a Fluorescence Imaging Plate Reader (Molecular Devices). Fluorescence intensity was monitored for 15 seconds to establish a baseline. […] The final concentration of the compound was adjusted to range from 100 μM to 1.5625 μM. […] Data were collected over the entire time course and analyzed using Excel and the curve-fitting formula GraphPad Prism.

Series [3] in a line: In vivo assay of body temperature increase (rectal body temperature). The arrangement: species or system rat. As to conditions: rats, oral, 10 mL/kg of 1 mg/mL in 0.5% methylcellulose; greatest ΔTb versus vehicle control at 0.5, 1 or 2 hrs. The text has this: Hyperthermia or undesirable elevation in animal body temperature is known to be an undesirable side-effect accompanying the administration of certain TRPV1 antagonists (Gavva, “Body-temperature maintenance as the predominant function of the vanilloid receptor TRPV1,” Trends Pharmacol. Sci. 29(11):550-557 (2008)).
Test Animals: Selection of rats (Crl/SD rats, 7 weeks, male) was based on rectal body temperature measured during the morning of the day of dosing as described below. In addition, to minimize spontaneous, stress-induced increases in body temperature, rats were acclimated in advance to both the rectal measurement procedure and to being handled and dosed. All lodging and testing took place in animal care laboratories with constant room temperature and humidity. The rats were free to move and ingest food and water throughout. Each rat was coded with a colored line on the tail, housed in a separate cage, and permitted the normal range of movement. Immediately before each body temperature measurement, a rat was transferred to a measurement cage. To reduce stress which could influence its body temperature, each rat was covered with towels during the measurement. A thermistor probe was then carefully inserted into the rectum of each rat and left in place until the temperature reading on the digital display had stabilized; this value was recorded.
Assay: On the day before dosing, rectal body temperature was measured at 9:00, 10:00, 11:00, 12:30, 13:30, 14:30, and 15:30 o'clock to familiarize the rats with the measurement procedure prior to administration of the test or control treatments. The rats were also dosed by oral gavage without vehicle at 12:30 o'clock to acclimate and familiarize them with the handling and dosing procedure.
On the day of dosing, only rats with rectal body temperatures within the range of from 37.0° C. to 37.7° C. were selected for study. Rectal body temperatures were measured at 9:00, 10:00, and 11:00 o'clock. Rats were excluded from the study if either their rectal body temperature was over 37.9° C. at 10:00 o'clock or was outside the range of from 37.0° C. to 37.7° C. at 11:00 o'clock. The selected rats were divided into several groups based on their rectal body temperatures at 11:00 o'clock. Rectal body temperatures of the selected rats were measured again at 12:30 o'clock and any rat with a rectal body temperature of 38.0° C. or greater was also excluded from the study.
Following assignment to either a test or control group, a test compound or a control was administered to the rats. Each test compound was dissolved in a vehicle of 0.5% aqueous methylcellulose solution and the final concentration of the test compound was adjusted to 1 mg/mL. Each test compound was orally administered once at a dose of 10 mL/kg. The same volume of the control (vehicle only) was administered once to the control group. Rectal body temperatures were measured at the following time points: 0.5, 1, and 2 hrs after administration.
The body temperature increase (ΔTb) for each test compound was calculated by subtracting, at each time point, the average temperature of the control group from the average temperature of the group administered that test compound. The greatest ΔTb obtained for each test compound at any of the time points is shown in Table 11 below, along with the ΔTb of the control.

A short description of series [4]: Aqueous solubility at pH 1.2 and pH 6.8. The class given is physicochemical. As to conditions: aqueous solution.
The mark [5] stands for this setting: pH 1.2, simulated gastric fluid, read-out: aqueous solubility at pH 1.2.
Where [6] appears, read: pH 6.8, aqueous buffer, read-out: aqueous solubility at pH 6.8.

In brackets after ≈: the same amount, converted by molar mass. Where two headings read alike, the source gives them in different places. Some results are limits rather than exact numbers.

A word on the IC50: it is the concentration that gives 50% inhibition. Low readings indicate greater potency, high ones weaker potency. A word on the solubility: it is the dissolved amount per volume that the medium holds.

For `C[C@@H]1CN(C(=O)Nc2nc3ccccc3s2)CCN1c1ncc([C@H](O)CO)cc1F` [A122(b), (R)—N-(benzo[d]thiazol-2-yl)-4-(5-((S)-1,2-dihydroxyethyl)-3-fluoropyridin-2-yl)-3-methylpiperazine-1-carboxamide], the IC50 came to 670 ± 94 nM against human TRPV1 [1] and 444 ± 79 nM against human TRPV1 [2].

Turning to `C[C@H]1CN(C(=O)Nc2nc3ccccc3s2)CCN1c1ncc([C@H](O)CO)cc1F` [A122(c), (S)—N-(benzo[d]thiazol-2-yl)-4-{5-[(S)-1,2-dihydroxyethyl]-3-fluoropyridin-2-yl}-3-methylpiperazine-1-carboxamide], the IC50 was determined as 553 ± 12 nM against human TRPV1 [1] and 178 ± 29 nM against human TRPV1 [2].

Regarding `C[C@@H]1CN(c2ncc([C@@H](O)CO)cc2F)CCN1C(=O)Nc1nc2ccc(Cl)cc2s1` [A123(e), (R)—N-(6-chlorobenzo[d]thiazol-2-yl)-4-(5-((R)-1,2-dihydroxyethyl)-3-fluoropyridin-2-yl)-2-methylpiperazine-1-carboxamide], the IC50 against human TRPV1 [1] stood at 0.4 nM; against human TRPV1 [2], 11.5 ± 1.4 nM.

On to `Cc1ccc2nc(NC(=O)N3CCN(c4ncc([C@@H](O)CO)cc4F)C[C@H]3C)sc2c1` [A126(e), (R)-4-(5-((R)-1,2-dihydroxyethyl)-3-fluoropyridin-2-yl)-2-methyl-N-(6-methylbenzo[d]thiazol-2-yl)piperazine-1-carboxamide], for which the IC50 at human TRPV1 [1] was found to be 0.4 nM; on human TRPV1 [2], 18.2 ± 2.9 nM.

`C[C@@H]1CN(C(=O)Nc2nc3cc(F)ccc3s2)CCN1c1ncc([C@H](O)CO)cc1F` [A155(b), (R)-4-{5-[(S)-1,2-dihydroxyethyl]-3-fluoropyridin-2-yl}-N-(5-fluorobenzo[d]thiazol-2-yl)-3-methylpiperazine-1-carboxamide]: the IC50 on human TRPV1 [1] amounted to 134 ± 16 nM; against human TRPV1 [2] it was 216 ± 57 nM.

Take `C[C@H]1CN(c2ncc([C@@H](O)CO)cc2F)CCN1C(=O)Nc1nc2cc(F)ccc2s1` [A155(d), (S)-4-{5-[(R)-1,2-dihydroxyethyl]-3-fluoropyridin-2-yl}-N-(5-fluorobenzo[d]thiazol-2-yl)-2-methylpiperazine-1-carboxamide]: in series [3], the “ΔTb, body temperature increase” value is 0.1 °C. For the same molecule, the solubility in series [4] (setting [5]) was greater than 50 µM; in series [4] (setting [6]), 4 µM (≈ 1.8 µg/mL). The molecule further displayed an IC50 at human TRPV1 [2] of 168 ± 42 nM.

For `C[C@@H]1CN(c2ncc([C@@H](O)CO)cc2F)CCN1C(=O)Nc1nc2cc(F)ccc2s1` [A155(e), (R)-4-{5-[(R)-1,2-dihydroxyethyl]-3-fluoropyridin-2-yl}-N-(5-fluorobenzo[d]thiazol-2-yl)-2-methylpiperazine-1-carboxamide], in series [3], the “ΔTb, body temperature increase” value worked out at 0.1 °C. The solubility was greater than 50 µM in series [4] (setting [5]) and 5 µM (≈ 2.25 µg/mL) in series [4] (setting [6]). In addition, half-maximal inhibition against human TRPV1 [2] (IC50) required 16.5 ± 4.2 nM.

For the molecule `C[C@H](O)[C@@H](O)c1cnc(N2CCN(C(=O)Nc3nc4ccccc4s3)C[C@H]2C)c(F)c1` [B122(j), (R)—N-(benzo[d]thiazol-2-yl)-4-{5-[(1S,2S)-1,2-dihydroxypropyl]-3-fluoropyridin-2-yl}-3-methylpiperazine-1-carboxamide], the IC50 on human TRPV1 [1] came out at 1720 nM; against human TRPV1 [2], 586 ± 78 nM.

In turn, `C[C@H](O)[C@@H](O)c1cnc(N2CCN(C(=O)Nc3nc4cc(F)ccc4s3)[C@@H](C)C2)c(F)c1` [B155(h), (S)-4-{5-[(1S,2S)-1,2-dihydroxypropyl]-3-fluoropyridin-2-yl}-N-(5-fluorobenzo[d]thiazol-2-yl)-2-methylpiperazine-1-carboxamide] displayed an IC50 on human TRPV1 [2] of 107 ± 20 nM.

In the case of `O=C(Nc1ccc(C(F)(F)F)c(Cl)c1)N1CC=C(c2ncccc2F)CC1` [Compound 215], the solubility in series [4] (pH 1.2, read-out: aqueous solubility at pH 1.2) is on record as 9.6 µM (≈ 3.84 µg/mL); in series [4] (pH 6.8, read-out: aqueous solubility at pH 6.8), 0.6 µM (≈ 0.24 µg/mL).
